In assay [1] the target is T1, human kynurenine aminotransferase II (hKAT II) (Homo sapiens, UniProt Q8N5Z0). As to the kind of experiment: recombinant enzyme assay, L-KYN to KYNA conversion by HPLC. In kind it is biochemical.
Target sequence in this assay (Q8N5Z0 whole entry): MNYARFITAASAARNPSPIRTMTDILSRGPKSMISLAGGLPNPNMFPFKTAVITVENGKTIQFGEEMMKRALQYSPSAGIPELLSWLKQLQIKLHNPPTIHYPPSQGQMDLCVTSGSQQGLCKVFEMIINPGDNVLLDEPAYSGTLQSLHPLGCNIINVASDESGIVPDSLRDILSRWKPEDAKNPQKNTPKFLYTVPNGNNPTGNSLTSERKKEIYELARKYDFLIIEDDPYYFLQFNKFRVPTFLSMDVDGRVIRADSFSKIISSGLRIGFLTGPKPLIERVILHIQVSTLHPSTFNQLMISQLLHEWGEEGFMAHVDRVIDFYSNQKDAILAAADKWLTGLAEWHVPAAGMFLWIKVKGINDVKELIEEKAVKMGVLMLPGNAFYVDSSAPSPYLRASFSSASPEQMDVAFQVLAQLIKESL
Assay [2] addresses T1, human kynurenine aminotransferase II (hKAT II). As to the kind of experiment: X-ray crystal structure at […] Å. In kind it is biochemical.
Target sequence in this assay (Q8N5Z0 2-425): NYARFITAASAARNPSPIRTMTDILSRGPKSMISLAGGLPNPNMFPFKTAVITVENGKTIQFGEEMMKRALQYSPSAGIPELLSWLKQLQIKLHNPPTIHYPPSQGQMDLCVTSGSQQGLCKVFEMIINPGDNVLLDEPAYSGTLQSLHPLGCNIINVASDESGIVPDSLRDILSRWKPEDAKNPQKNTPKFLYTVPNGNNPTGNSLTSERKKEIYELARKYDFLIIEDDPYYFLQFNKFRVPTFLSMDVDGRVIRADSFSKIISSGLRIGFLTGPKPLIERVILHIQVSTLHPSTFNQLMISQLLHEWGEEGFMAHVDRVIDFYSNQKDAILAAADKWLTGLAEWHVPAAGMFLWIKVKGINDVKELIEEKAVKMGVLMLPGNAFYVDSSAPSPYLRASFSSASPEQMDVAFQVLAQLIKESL

As for `C[C@@H]1COc2c(N3CCN(N)CC3)c(F)cc3c(=O)c(C(=O)O)cn1c23` [1*, 1* (stereoisomer of BFF-122)], in assay [1], the IC50 is 0.91 and 1.5 (two enantiomers) μM.
Consider `C[C@H]1COc2c(N3CCN(N)CC3)c(F)cc3c(=O)c(C(=O)O)cn1c23` [compound 1, (S)-(−)-9-(4-aminopiperazin-1-yl)-8-fluoro-3-methyl-6-oxo-2,3-dihydro-6H-1-oxa-3a-azaphenalene-5-carboxylic acid], for which the IC50 in assay [2] was 0.91 and 1.5 (two enantiomers) μM.

The record behind these values is article PMC3929320 (Journal of medicinal chemistry, 2010).
